Test results as given in publication PMC8518806 (2021).

Assays:
[1] = system: BeCA (RNA8-2) (RNA, aptamer) GGAGGUACGUGGACUGCUUAUGCAGUAGGAAGGCCUCC; test: fluorescence turn-on titration (NIR); conditions: 125 mM KCl, 5 mM MgCl2; 20 mM Hepes pH 7.4; 100 nM BC6
[2] = system: BeCA (RNA8-2) (RNA, aptamer) GGAGGUACGUGGACUGCUUAUGCAGUAGGAAGGCCUCC; test: fluorescence turn-on titration; conditions: 125 mM KCl, 5 mM MgCl2; 20 mM Hepes pH 7.4; 100 nM BC1-DN
[3] = system: RNA8-1 (RNA, aptamer) GGAGGCAGGGCUUAGUUGAGGUACGUGGACUGCUUAUGCAGUAGGAAGGCCUCACUUUUCCGCCGUUGGCACCAC; test: fluorescence turn-on titration; conditions: 125 mM KCl, 5 mM MgCl2; 20 mM Hepes pH 7.4; 100 nM BC1-DN
[4] = system: RNA8-3 (RNA, aptamer) GGAGGUACGUGGAUAGGAAGGCCUCC; test: fluorescence turn-on titration; conditions: 125 mM KCl, 5 mM MgCl2; 20 mM Hepes pH 7.4; 100 nM BC1-DN
[5] = system: M1 (RNA, aptamer) GGAGGCACGUGGACUGCUUAUGCAGUAGGAAGGCCUCC; test: fluorescence turn-on titration; conditions: 125 mM KCl, 5 mM MgCl2; 20 mM Hepes pH 7.4; 100 nM BC1-DN
[6] = system: M2 (RNA, aptamer) GGAGGGACGUGGACUGCUUAUGCAGUAGGAAGCCCUCC; test: fluorescence turn-on titration; conditions: 125 mM KCl, 5 mM MgCl2; 20 mM Hepes pH 7.4; 100 nM BC1-DN
[7] = system: M3 (RNA, aptamer) GGAGGUACGUGGACUGCUUAUGCAGUAGGAAGACCUCC; test: fluorescence turn-on titration; conditions: 125 mM KCl, 5 mM MgCl2; 20 mM Hepes pH 7.4; 100 nM BC1-DN
[8] = system: M4 (RNA, aptamer) GGAGGUACGUGGACUGCUUAUGCAGUAGGAAGCCCUCC; test: fluorescence turn-on titration; conditions: 125 mM KCl, 5 mM MgCl2; 20 mM Hepes pH 7.4; 100 nM BC1-DN
[9] = system: M5 (RNA, aptamer) GGAGGUACGUGGACUGCUUAUGCAGUAGGAAGUCCUCC; test: fluorescence turn-on titration; conditions: 125 mM KCl, 5 mM MgCl2; 20 mM Hepes pH 7.4; 100 nM BC1-DN
[10] = system: M6 (RNA, aptamer) GGAAAUACGUGGACUGCUUAUGCAGUAGGAAGGUUUCC; test: fluorescence turn-on titration; conditions: 125 mM KCl, 5 mM MgCl2; 20 mM Hepes pH 7.4; 100 nM BC1-DN
[11] = system: M7 (RNA, aptamer) GGAGUACGUGGACUGCUUAUGCAGUAGGAAGGCUCC; test: fluorescence turn-on titration; conditions: 125 mM KCl, 5 mM MgCl2; 20 mM Hepes pH 7.4; 100 nM BC1-DN
[12] = system: M8 (RNA, aptamer) GGAGGUCGUGGACUGCUUAUGCAGUAGGAAGGCCUCC; test: fluorescence turn-on titration; conditions: 125 mM KCl, 5 mM MgCl2; 20 mM Hepes pH 7.4; 100 nM BC1-DN
[13] = system: M9 (RNA, aptamer) GGAGGUAGUGGACUGCUUAUGCAGUAGGAAGGCCUCC; test: fluorescence turn-on titration; conditions: 125 mM KCl, 5 mM MgCl2; 20 mM Hepes pH 7.4; 100 nM BC1-DN
[14] = system: M10 (RNA, aptamer) GGAGGUACGUGGACUGCUUAUGCAGUAGGAAGCCUCC; test: fluorescence turn-on titration; conditions: 125 mM KCl, 5 mM MgCl2; 20 mM Hepes pH 7.4; 100 nM BC1-DN
[15] = system: M11 (RNA, aptamer) GGAGGUACGUGGGCUGCUUAUGCAGCAGGAAGGCCUCC; test: fluorescence turn-on titration; conditions: 125 mM KCl, 5 mM MgCl2; 20 mM Hepes pH 7.4; 100 nM BC1-DN
[16] = system: M12 (RNA, aptamer) GGAGGUACGUGGACUGCUUCGGCAGUAGGAAGGCCUCC; test: fluorescence turn-on titration; conditions: 125 mM KCl, 5 mM MgCl2; 20 mM Hepes pH 7.4; 100 nM BC1-DN

| SMILES | KD [1] | KD [2] | KD [3] | KD [4] | KD [5] | KD [6] | KD [7] | KD [8] | KD [9] | KD [10] | KD [11] | KD [12] | KD [13] | KD [14] | KD [15] | KD [16] |
| --- | --- | --- | --- | --- | --- | --- | --- | --- | --- | --- | --- | --- | --- | --- | --- | --- |
| CN(C)c1ccc2c(c1)OC(c1cc3ccc(N(C)C)cc3oc1=O)=CC21c2ccccc2C(=O)N1C#N (stereo not shown) | 220 nM | – | – | – | – | – | – | – | – | – | – | – | – | – | – | – |
| CN(C)c1ccc2cc(-c3cc(-c4ccc(C(=O)NCCOCCOCCNc5ccc([N+](=O)[O-])cc5[N+](=O)[O-])cc4C(=O)[O-])c4ccc(N(C)C)cc4[o+]3)c(=O)oc2c1 | – | 230 nM | 900 ± 200 nM | > 10000 nM | 1100 ± 470 nM | 1700 ± 480 nM | 620 ± 190 nM | 4600 ± 1400 nM | 1300 ± 270 nM | 350 ± 50 nM | 200 ± 30 nM | 1100 ± 440 nM | 250 ± 60 nM | 770 ± 180 nM | 270 ± 80 nM | 330 ± 120 nM |
